The text below walks through data of US20180100153A1, “Method and kit for use in inhiiting tumor progression, predicting or determining tumor progression state in VGF expressing cancers” (Truebio LLC, priority 2016, published 2018).

Test [1] relates to HCC827GR/tet-on control cells. Briefly: Xenograft assay with doxycycline. The format is in vivo, nude mice. As to conditions: daily oral Dox for 30 days. How it is done:
FIG. 13 illustrates VGF as a therapeutic target. (FIG. 13A) Q-PCR (left) analysis for VGF expression and clonogenic assay (right) in HCC827GR/tet-on control cells. […] (FIG. 13B) Xenograft assay for assessing the effect of doxycycline treatment on tumor growth. HCC827GR/tet-on control cells were injected subcutaneously into nude mice. 32 days after cancer cell injection, mice were treated with or without daily oral doxycycline (Dox) for another 30 days. Tumor volume was monitored over time as indicated (left). Tumor weight was measured after harvest (upper right). The representative photographs illustrate tumor growth 30 days after Dox or normal saline treatment (lower right). ns means no significant (n=6 mice/group). (FIG. 13C) Q-PCR (left) analysis for VGF expression and clonogenic assay (right) in HCC827GR/tet-on shVGF cells in which shVGF was induced by doxycycline (Dox). […] HCC827GR/tet-on-shVGF cells were injected subcutaneously into nude mice. 32 days after cancer cell injection, mice were treated with or without daily oral doxycycline (Dox) for another 30 days. Tumor volume was monitored over time as indicated (left). Tumor weight was measured after harvest (upper right). The representative photographs illustrate tumor growth 30 days after Dox or normal saline treatment (lower right). Scale bar, 1 mm. Error bars indicate the SEM (n=6 mice/group; *P<0.05). […]

Test [2] concerns HCC827GR cells infected with shVGF. The test can be described thus: alamarBlue cell viability assay after VGF knockdown. As to conditions: HCC827GR cells with VGF-silencing, gefitinib 3 days, FIG. 3F. The format is cell-based. The text has this:
FIG. 3 illustrates expression of VGF in EGFR-TKI resistant lung cancer cells. […] Tubulin served as a loading control. (FIG. 3B) Q-PCR analysis (left) for measuring the expression of VGF in HCC827GR-2, an independently selected EGFR-TKI resistant HCC827 pool, versus and HCC827 cells. Tubulin served as a loading control. Gene expression analysis (right) for VGF expression in HCC827 and EGFR-TKI resistant clones (ER3 and T15-2) from the database of GSE38310. (FIG. 3C) Gene expression analysis for VGF expression in different subtypes of lung cancer cell lines from the database of […] (CCLE). SCLC: small cell lung cancer; ADC: adenocarcinoma; SCC: squamous cell carcinoma. […] (FIG. 3E) Q-PCR analysis (left) and western blotting (right) for measuring VGF expression in HCC827GR cells infected with lentiviral vectors encoding shVGF (shVGF) or scrambled control (SC). shVGF#1 and shVGF#2 target different regions in VGF mRNA.
To identify genes involved in EGFR-TKI resistance and EMT in lung adenocarcinoma, a gene expression profiling assay followed by Q-PCR analysis were performed in HCC827GR versus HCC827 cells (FIG. 3A, upper). […] . […] Consistently, the expression of VGF was elevated in the independently isolated TKI resistance HCC827 cells (FIGS. 3B and 10). […] The inventors further examined VGF levels in cell lines derived from different subtypes of lung cancer. […] .
Background: The colour change of resazurin is a common sign of viable cells or microbes.

The test system of test [3] is HCC827GR cells. Briefly: Western blot of apoptosis markers (activated caspase 3, cleaved PARP). In kind it is cell-based. The conditions noted are these: gefitinib 1 μM, 24 hr.
The subject of test [4] is HCC827GR cells. The test can be described thus: IC50 analysis via alamarBlue assay, HCC827GR versus HCC827. The format is cell-based.
In test [5] the test system is lung adenocarcinoma harboring EGFR mutations (exon 19 deletions or the L858R mutation). The conditions noted are these: References 5 to 10; cited from earlier work.
A further test deals with HEK293T cells. The test can be described thus: Clonogenic analysis of VGF mutants under low serum stress. The format is cell-based. As to conditions: transfected HEK293T cells, DMEM with 1% FBS, 10 days. The text has this:
FIG. 18 illustrates effect of VGF mutants on low serum stress. (FIG. 18A) Schematic representation of VGF deletion mutations (FIG. 18B) A table summarizing clonogenic analysis of HEK293T cells transfected with expression vector encoding empty control (Ctrl), full-length VGF cDNA (VGF), or truncated VGF cDNA as described in the FIG. 18A under the growth of DMEM supplement with 1% FBS for 10 days.
The effect of VGF mutants on low serum stress was examined (FIG. 18). Clonogenic analysis of HEK293T cells transfected with expression vector encoding empty control, full-length VGF cDNA, or truncated VGF cDNA under the growth of DMEM supplement with 1% FBS for 10 days were summarized in FIG. 18B.

Regarding `C[C@H]1c2cccc(O)c2C(=O)C2=C(O)[C@]3(O)C(=O)C(C(N)=O)=C(O)[C@@H](N(C)C)[C@@H]3[C@@H](O)[C@@H]21` [Dox, doxycycline], the tumor growth entry in test [1] is reported as “no effect”.

Take `COc1cc2ncnc(Nc3ccc(F)c(Cl)c3)c2cc1OCCCN1CCOCC1` [gefitinib]: the “cell viability (sensitivity to gefitinib)” value in test [2] is reported as “sensitive”. Further, in the test on HCC827GR cells [3], the “expression of activated caspase 3 and PARP (apoptosis)” value is “resistant to gefitinib-induced apoptosis”.

For the molecule `C=CC(=O)Nc1cc(Nc2nccc(-c3cn(C)c4ccccc34)n2)c(OC)cc1N(C)CCN(C)C` [AZD9291], the “IC50 analysis (EGFR-TKI resistance)” value in the test on HCC827GR cells [4] was “resistance”.

For the molecule `C#Cc1cccc(Nc2ncnc3cc(OCCOC)c(OCCOC)cc23)c1` [erlotinib], in test [5], the therapeutic response result is listed as “profound therapeutic responses”.

B1: VGF 1-615: full length VGF, expressed from full-length VGF cDNA vector (protein, UniProt O15240 1-615, looked up)
chain: MKALRLSASALFCLLLINGLGAAPPGRPEAQPPPLSSEHKEPVAGDAVPGPKDGSAPEVRGARNSEPQDEGELFQGVDPRALAAVLLQALDRPASPPAPSGSQQGPEEEAAEALLTETVRSQTHSLPAPESPEPAAPPRPQTPENGPEASDPSEELEALASLLQELRDFSPSSAKRQQETAAAETETRTHTLTRVNLESPGPERVWRASWGEFQARVPERAPLPPPAPSQFQARMPDSGPLPETHKFGEGVSSPKTHLGEALAPLSKAYQGVAAPFPKARRPESALLGGSEAGERLLQQGLAQVEAGRRQAEATRQAAAQEERLADLASDLLLQYLLQGGARQRGLGGRGLQEAAEERESAREEEEAEQERRGGEERVGEEDEEAAEAEAEAEEAERARQNALLFAEEEDGEAGAEDKRSQEETPGHRRKEAEGTEEGGEEEDDEEMDPQTIDSLIELSTKLHLPADDVVSIIEEVEEKRKRKKNAPPEPVPPPRAAPAPTHVRSPQPPPPAPAPARDELPDWNEVLPPWDREEDEVYPPGPYHPFPNYIRPRTLQPPSALRRRHYHHALPPSRHYPGREAQARRAQEEAEAEERRLQEQEELENYIEHVLLRRP
modifications: full-length
notes: full length VGF, expressed from full-length VGF cDNA vector
For the molecule B1, the “cell survival in clonogenic analysis” value with HEK293T cells was “survived”.
